The target in the test is T1, urease (UreB subunit) (Helicobacter pylori, UniProt P69996).
T1 construct: native crude urease of H. pylori ATCC 43504 (UreA and UreB subunits); with UreA (urease subunit)
Description: urease activity inhibition in crude urease preparation, indophenol (ammonia release) assay; Western blot of subunits. It is filed as biochemical.

T1 sequence (P69996 whole entry): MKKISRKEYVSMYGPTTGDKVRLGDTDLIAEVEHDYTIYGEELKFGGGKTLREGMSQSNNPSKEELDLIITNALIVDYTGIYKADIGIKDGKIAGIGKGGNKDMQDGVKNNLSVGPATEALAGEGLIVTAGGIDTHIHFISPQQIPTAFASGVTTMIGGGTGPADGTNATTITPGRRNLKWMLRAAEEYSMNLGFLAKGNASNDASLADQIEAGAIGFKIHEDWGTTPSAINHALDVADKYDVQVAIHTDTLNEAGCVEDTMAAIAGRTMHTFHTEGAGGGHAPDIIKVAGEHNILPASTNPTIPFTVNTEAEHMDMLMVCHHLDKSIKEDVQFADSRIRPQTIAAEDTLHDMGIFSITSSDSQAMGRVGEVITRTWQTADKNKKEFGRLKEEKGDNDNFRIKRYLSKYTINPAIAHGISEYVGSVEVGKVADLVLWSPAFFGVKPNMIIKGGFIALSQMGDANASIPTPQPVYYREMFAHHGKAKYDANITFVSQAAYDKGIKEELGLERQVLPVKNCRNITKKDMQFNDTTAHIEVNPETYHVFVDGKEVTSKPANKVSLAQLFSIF

Regarding `O=C(O[C@@H]1Cc2c(O)cc(O)cc2O[C@@H]1c1cc(O)c(O)c(O)c1)c1cc(O)c(O)c(O)c1` [(–)-epigallocatechin gallate], half-maximal inhibition (IC50) was put at 30 µM.

These data come from paper PMC3991664, “Growth Inhibitory, Bactericidal, and Morphostructural Effects of Dehydrocostus Lactone from Magnolia sieboldii Leaves on Antibiotic-Susceptible and -Resistant Strains of Helicobacter pylori” (PLoS ONE, 2014).
